Experimental data taken from patent publication US20120129842A1, “BISTHIAZOLE INHIBITORS OF PRO-MATRIX METALLOPROTEINASE ACTIVATION” (priority 2010, published 2012).
Counter-ions that a name gives are not always drawn.

Columns and labels:
[1] = target: T1, proMMP9(67-444;ΔFnII) (SEQ ID NO:5) (Homo sapiens, UniProt P14780, DEL216-390); assay: ThermoFluor binding assay with proMMP9(67-444;ΔFnII); settings: pH 7.0
T1 construct: start methionine (N); made in house; host or cells: E. coli BL21(DE3) RIL
T1 sequence (P14780 with tags, fused parts or gaps DEL216-390): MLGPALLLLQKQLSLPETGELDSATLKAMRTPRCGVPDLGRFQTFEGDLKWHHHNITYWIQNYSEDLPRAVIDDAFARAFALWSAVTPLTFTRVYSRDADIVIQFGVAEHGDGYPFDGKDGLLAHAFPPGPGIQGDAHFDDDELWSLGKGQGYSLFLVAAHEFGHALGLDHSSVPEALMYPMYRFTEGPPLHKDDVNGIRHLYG
Experimental: (§1) The ThermoFluor® (TF) assay is a 384-well plate-based binding assay that measures thermal stability of proteins (Biomol Screen 2001, 6, 429-40; Biochemistry 2005, 44, 5258-66). The experiments were carried out using instruments available from Johnson & Johnson Pharmaceutical Research & Development, LLC. TF dye used in all experiments was […] (1,8-ANS) (Invitrogen: A-47).
(§2) Compounds were arranged in a pre-dispensed plate (Greiner Bio-one: 781280), wherein compounds were serially diluted in 100% DMSO across 11 columns within a series. Columns 12 and 24 were used as DMSO reference and contained no compound. For multiple compound concentration-response experiments, the compound aliquots ([…]) were robotically predispensed directly into black 384-well polypropylene PCR microplates (Abgene: TF-0384/k) using a Cartesian Hummingbird liquid handler (DigiLab, Holliston, Mass.). Following compound dispense, protein and dye solutions were added to achieve the final assay volume of 3 μL. The assay solutions were overlayed with 1 μL of silicone oil (Fluka, type DC 200: 85411) to prevent evaporation.
(§3) Assay plates were robotically loaded onto a thermostatically controlled PCR-type thermal block and then heated from 40 to 90° C. at a ramp-rate of 1° C./min for all experiments. Fluorescence was measured by continuous illumination with UV light (Hamamatsu LC6) supplied via fiber optics and filtered through a band-pass filter (380-400 nm; >6 OD cutoff). Fluorescence emission of the entire 384-well plate was detected by measuring light intensity using a CCD camera (Sensys, Roper Scientific) filtered to detect 500±25 nm, resulting in simultaneous and independent readings of all 384 wells. A single image with 20-sec exposure time was collected at each temperature, and the sum of the pixel intensity in a given area of the assay plate was recorded vs temperature and fit to standard equations to yield the Tm (J Biomol Screen 2001, 6, 429-40).
(§4) Thermodynamic parameters necessary for fitting compound binding for each proMMP were estimated by differential scanning calorimetry (DSC) and from ThermoFluor® data. The heat capacity of unfolding for each protein was estimated from the molecular weight and from ThermoFluor® dosing data.
The protein sample preparations had to include a desalting buffer exchange step via a PD-10 gravity column (GE Healthcare). The desalting buffer exchange was performed prior to diluting the protein to the final assay concentration of 3.5 μM proMMP9(67-444;ΔFnII) (SEQ ID NO:5). The concentration of proMMP9(67-444;ΔFnII) (SEQ ID NO:5) was determined spectrophotometrically based on a calculated extinction coefficient of ε280=33900 M^−1cm^−1, a calculated molecular weight of 22.6 kDa, and calculated pI of 5.20. ThermoFluor® reference conditions were defined as follows: 80 μg/mL (3.5 μM) proMMP9(67-444;ΔFnII) (SEQ ID NO:5), 50 μM 1,8-ANS, pH 7.0 Buffer (50 mM HEPES pH 7.0, 100 mM NaCl, 0.001% Tween-20, 2.5 mM MgCl2, 300 μM CaCl2). The thermodynamic parameters for proMMP9(67-444;ΔFnII) (SEQ ID NO:5) are as follows: Tm (° C.)=63 (+/−0.1), ΔUH(Tm) (cal mol^−1)=105000(+/−5000), ΔUS(Tm) (cal mol^−1 K^−1)=[…], ΔUCp (cal mol^−1 K^−1)=2000.

[2] = target: proMMP13(1-268) (SEQ ID NO:7) (Homo sapiens, UniProt P45452); assay: ThermoFluor binding assay with proMMP13(1-268); parameters: 6xHis (C); made in house; settings: pH 7.0
Experimental: as §1, §2, §3, §4
The proMMP13(1-268) (SEQ ID NO:7) protein sample preparations included a desalting buffer exchange step via a PD-10 gravity column (GE Healthcare). The desalting buffer exchange was performed prior to diluting the protein to the final assay concentration of 3.5 μM. The concentration of proMMP13(1-268) (SEQ ID NO:7) was estimated spectrophotometrically based on a calculated extinction coefficient of ε280=37000 M^−1cm^−1, a calculated molecular weight of 30.8 kDa, and calculated pI of 5.33. ThermoFluor® reference conditions were defined as follows: 100 μg/mL proMMP13(1-268) (SEQ ID NO:7), 25 μM 1,8-ANS, pH 7.0 Buffer (50 mM HEPES pH 7.0, 100 mM NaCl, 0.001% Tween-20, 2.5 mM MgCl2, 300 μM CaCl2). The thermodynamic parameters for proMMP13(1-268) (SEQ ID NO:7) are as follows: Tm (° C.)=67 (+/−0.1), ΔUH(Tm) (cal mol^−1)=107000(+/−5000), ΔUS(Tm) (cal mol^−1 K^−1)=318, ΔUCp (cal mol^−1 K^−1)=2600.

[3] = target: T2, full-length proMMP9(1-707) (SEQ ID NO:1) (Homo sapiens, UniProt P14780, R574P); assay: proMMP9/MMP3 P126 Activation Assay; type: biochemical; settings: 20 nM proMMP9, 20 nM MMP3, 80 min 37° C.
T2 construct: made in house; host or cells: HEK293 (proMMP9, secreted); E. coli (MMP3)
Experimental: The reaction volume was 50 μL. […] Reactivity of residual MMP3 towards P-126 substrate was minimal under these conditions.

[4] = target: T3, proMMP9(20-445;ΔFnII) (SEQ ID NO:6) (Homo sapiens, UniProt P14780, DEL216-390); assay: ThermoFluor binding assay with proMMP9(20-445;ΔFnII); settings: pH 7.0
T3 construct: start methionine (N); made in house; host or cells: E. coli BL21(DE3) RIL
T3 sequence (P14780 with tags, fused parts or gaps DEL216-390): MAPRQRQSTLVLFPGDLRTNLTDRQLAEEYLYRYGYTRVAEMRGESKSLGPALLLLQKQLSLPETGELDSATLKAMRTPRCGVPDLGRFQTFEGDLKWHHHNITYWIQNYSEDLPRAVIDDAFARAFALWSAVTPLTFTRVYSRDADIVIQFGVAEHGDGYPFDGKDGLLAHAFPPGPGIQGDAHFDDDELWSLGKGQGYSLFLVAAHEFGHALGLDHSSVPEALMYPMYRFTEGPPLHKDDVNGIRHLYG
Experimental: as §1, §2, §3, §4
The protein sample preparations included a desalting buffer exchange step via a PD-10 gravity column (GE Healthcare). The desalting buffer exchange was performed prior to diluting the protein to the final assay concentration of 2.8 μM proMMP9(20-445;ΔFnII) (SEQ ID NO:6). The concentration of proMMP9(20-445;ΔFnII) (SEQ ID NO:6) was determined spectrophotometrically based on a calculated extinction coefficient of ε280=39880 M^−cm^−1, a calculated molecular weight of 28.2 kDa, and calculated pI of 5.5. ThermoFluor® reference conditions were define as follows: 80 μg/mL (2.8 μM) proMMP9(20-445;ΔFnII) (SEQ ID NO:6), 50 μM 1,8-ANS, pH 7.0 Buffer (50 mM HEPES pH 7.0, 100 mM NaCl, 0.001% Tween-20, 2.5 mM MgCl2, 300 μM CaCl2). The thermodynamic parameters for proMMP9(20-445;ΔFnII) (SEQ ID NO:6) are as follows: Tm (° C.)=72 (+/−0.1), ΔUH(Tm) (cal mol^−1)=160000(+/−5000), ΔUS(Tm) (cal mol^−1 K^−1)=434, ΔUCp (cal mol^−1 K^−)=2400.

T2 sequence (P14780 20-707 R574P): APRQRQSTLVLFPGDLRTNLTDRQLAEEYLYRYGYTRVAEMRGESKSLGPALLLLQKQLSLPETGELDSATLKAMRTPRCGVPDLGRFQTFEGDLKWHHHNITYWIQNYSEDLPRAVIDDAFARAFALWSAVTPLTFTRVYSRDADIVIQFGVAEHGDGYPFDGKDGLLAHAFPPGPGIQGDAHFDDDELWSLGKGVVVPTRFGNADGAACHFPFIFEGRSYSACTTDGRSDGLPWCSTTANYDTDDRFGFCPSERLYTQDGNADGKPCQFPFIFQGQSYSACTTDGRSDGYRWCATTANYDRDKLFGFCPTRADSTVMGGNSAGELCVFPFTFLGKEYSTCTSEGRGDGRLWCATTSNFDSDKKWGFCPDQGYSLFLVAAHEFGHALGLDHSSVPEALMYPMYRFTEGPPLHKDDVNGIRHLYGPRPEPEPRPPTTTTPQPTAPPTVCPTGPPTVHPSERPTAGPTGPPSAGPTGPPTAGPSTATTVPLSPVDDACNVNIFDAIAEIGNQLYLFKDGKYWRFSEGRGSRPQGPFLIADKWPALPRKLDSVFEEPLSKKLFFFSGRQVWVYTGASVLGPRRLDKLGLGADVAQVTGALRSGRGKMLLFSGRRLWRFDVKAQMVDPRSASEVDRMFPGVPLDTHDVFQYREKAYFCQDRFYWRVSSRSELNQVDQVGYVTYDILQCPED

Kd [1] | Kd [2] | IC50 [3] | Kd [4] | Compound
2.3 µM | 25 µM | – | 8.6 µM | COc1ccc(C)cc1Nc1nc(-c2sc(N)nc2C)cs1 [Example 24, N^2-(2-Methoxy-5-methyl-phenyl)-4′-methyl-[4,5′]bithiazolyl-2,2′-diamine.HBr]
6.5 µM | > 95 µM | – | 19 µM | COc1ccc(C(=O)NCCN2CCCCC2)cc1Nc1nc(-c2sc(NC(C)=O)nc2C)cs1 [Example 58, 3-(2′-Acetylamino-4′-methyl-[4,5′]bithiazolyl-2-ylamino)-4-methoxy-N-(2-piperidin-1-yl-ethyl)-benzamide.TFA]
2.8 µM | 7.8 µM | – | 3 µM | CNC(=O)c1ccc(OC)c(Nc2nc(-c3sc(NC(C)=O)nc3C)cs2)c1 [Example 65, 3-(2′-Acetylamino-4′-methyl-[4,5′]bithiazolyl-2-ylamino)-4-methoxy-N-methyl-benzamide.TFA]
0.48 µM | 2.9 µM | – | 15 µM | CCOc1ccc(-c2ncco2)cc1Nc1nc(-c2sc(NC(C)=O)nc2C)cs1 [Example 78, N-[2-(2-Ethoxy-5-oxazol-2-yl-phenylamino)-4′-methyl-[4,5′]bithiazolyl-2′-yl]-acetamide.TFA]
3.5 µM | 13 µM | – | 15 µM | CCOC(=O)c1ccc(OCC)c(Nc2nc(-c3sc(C)nc3C)cs2)c1 [Example 82, 3-(2′,4′-Dimethyl-[4,5′]bithiazolyl-2-ylamino)-4-ethoxy-benzoic acid ethyl ester.HBr]
2.5 µM | 16 µM | – | 0.74 µM | COc1ccc(C(N)=O)cc1Nc1nc(-c2sc(N3CCN(C)CC3)nc2C)cs1 [Example 93, 4-Methoxy-3-[4′-methyl-2′-(4-methyl-piperazin-1-yl)-[4,5′]bithiazolyl-2-ylamino]-benzamide.TFA]
2.9 µM | 1.3 µM | – | 0.24 µM | Cc1nc(C(=O)N2CCC(O)CC2)sc1-c1csc(Nc2cc(C(N)=O)ccc2OC(C)C)n1 [Example 105, 3-[2′-(4-Hydroxy-piperidine-1-carbonyl)-4′-methyl-[4,5′]bithiazolyl-2-ylamino]-4-isopropoxy-benzamide.TFA]

The remaining lines, values behind:

Compound | Kd [1] | Kd [2] | IC50 [3] | Kd [4]
Cc1nc(C)c(-c2csc(Nc3cc(C(N)=O)ccc3OC(C)C)n2)s1 [Example 1, 3-(2′,4′-Dimethyl-[4,5′]bithiazolyl-2-ylamino)-4-isopropoxy-benzamide.HBr] | 0.17 µM | 0.14 µM | 0.16 µM | 0.026 µM
Cc1nc(N)sc1-c1csc(Nc2cc(C(N)=O)ccc2OC(C)C)n1 [Example 2, 3-(2′-Amino-4′-methyl-[4,5′]bithiazolyl-2-ylamino)-4-isopropoxy-benzamide.HBr] | 0.16 µM | 0.081 µM | 0.16 µM | 0.021 µM
CC(=O)Nc1nc(C)c(-c2csc(Nc3cc(C(N)=O)ccc3OC(C)C)n2)s1 [Example 3, 3-(2′-Acetylamino-4′-methyl-[4,5′]bithiazolyl-2-ylamino)-4-isopropoxy-benzamide.HBr] | 0.3 µM | 0.3 µM | 0.13 µM | 0.41 µM
Cc1nc(C)c(-c2nc(Nc3cc(C(N)=O)ccc3OC(C)C)sc2Br)s1 [Example 4, 3-(5-Bromo-2′,4′-dimethyl-[4,5′]bithiazolyl-2-ylamino)-4-isopropoxy-benzamide] | 3.1 µM | 3.2 µM | 9 µM | 1.2 µM
COc1ccc(C(N)=O)cc1Nc1nc(-c2sc(N)nc2C)cs1 [Example 5, 3-(2′-Amino-4′-methyl-[4,5′]bithiazolyl-2-ylamino)-4-methoxy-benzamide.HBr] | 0.56 µM | 4.9 µM | 0.85 µM | 0.27 µM
CCOc1ccc(C(N)=O)cc1Nc1nc(-c2sc(C)nc2C)cs1 [Example 6, 3-(2′,4′-Dimethyl-[4,5′]bithiazolyl-2-ylamino)-4-ethoxy-benzamide.TFA] | 0.58 µM | 2 µM | 0.16 µM | 0.2 µM
CCOc1ccc(C(N)=O)cc1Nc1nc(-c2sc(N)nc2C)cs1 [Example 7, 3-(2′-Amino-4′-methyl-[4,5′]bithiazolyl-2-ylamino)-4-ethoxy-benzamide] | 0.34 µM | 1.4 µM | 0.26 µM | 0.089 µM
CCN(CC)S(=O)(=O)c1ccc(OC)c(Nc2nc(-c3sc(N)nc3C)cs2)c1 [Example 21, 3-(2′-Amino-4′-methyl-[4,5′]bithiazolyl-2-ylamino)-N,N-diethyl-4-methoxy-benzenesulfonamide.HBr] | 2.9 µM | 1.7 µM | – | 9.6 µM
COc1ccc(-c2ccccc2)cc1Nc1nc(-c2sc(N)nc2C)cs1 [Example 23, N^2-(4-Methoxy-biphenyl-3-yl)-4′-methyl-[4,5′]bithiazolyl-2,2′-diamine.HBr] | 15 µM | 0.98 µM | – | 12 µM
